# Square brackets hold non-standard residues; d marks the D form. Peptide text beside a SMILES is read from it. * marks the point of attachment. hArg = N=C(N)NCCCC[C@H](N)C(=O)O; Nle = CCCC[C@H](N)C(=O)O; Orn = NCCC[C@H](N)C(=O)O; Bz = O=C(c1ccccc1)*
# Tests used:
# [1] = target: T1, cultured rat pituitary cells (Rattus norvegicus, UniProt P35353); test: Stimulation of ACTH and β-endorphin secretion by cultured rat pituitary cells (general procedure of Example III); type: cell-based; details: for secretion of ACTH and β-END-LI: general procedure of Example III
# T1 sequence (P35353 24-415): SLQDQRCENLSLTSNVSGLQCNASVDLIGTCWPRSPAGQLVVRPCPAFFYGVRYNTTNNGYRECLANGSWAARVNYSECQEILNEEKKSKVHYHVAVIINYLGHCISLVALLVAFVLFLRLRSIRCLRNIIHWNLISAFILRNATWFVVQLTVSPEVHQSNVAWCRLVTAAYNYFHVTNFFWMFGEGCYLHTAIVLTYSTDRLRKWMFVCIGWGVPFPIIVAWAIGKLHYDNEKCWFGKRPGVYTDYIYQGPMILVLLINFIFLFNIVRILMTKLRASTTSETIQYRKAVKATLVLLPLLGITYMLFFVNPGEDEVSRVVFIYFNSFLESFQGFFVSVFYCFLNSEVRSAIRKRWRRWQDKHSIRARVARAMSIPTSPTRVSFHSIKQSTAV
# Description: The synthetic peptide AHC and oCRF were examined for their effects on the secretion of ACTH and B-endorphin in vitro and was also in vivo. The potency of synthetic oCRF to stimulate the secretion of ACTH and β-endorphin by cultured rat pituitary cells was measured using the procedure as generally set forth in Endocrinology, 91, 562 (1972). […] In.vivo testing is carried out using the general procedure set forth in C. Rivier et al., Science, 218, 377 (1982).
# [2] = Lowering of blood pressure, in vivo testing by the general procedure of Example III
Compound,secretion of ACTH and β-END-LI [1],lowering of blood pressure [2],secretory response to maximal concentrations ([1]; maximal (1-5 nM) concentrations)
CC[C@H](C)[C@H](NC(=O)[C@@H](NC(=O)[C@H](CC(=O)O)NC(=O)[C@H](CC(C)C)NC(=O)[C@H](CC(C)C)NC(=O)[C@H](CC(C)C)NC(=O)[C@H](CCCNC(=N)N)NC(=O)[C@H](CC(N)=O)NC(=O)[C@H](CC(N)=O)NC(=O)[C@H](C)NC(=O)[C@H](C)NC(=O)[C@H](CCC(N)=O)NC(=O)[C@H](CCC(=O)O)NC(=O)[C@H](CCCCN)NC(=O)[C@H](CCC(=O)O)NC(=O)[C@H](CCCCN)NC(=O)[C@H](CCC(=O)O)NC(=O)[C@H](CCC(N)=O)NC(=O)[C@H](CCCCN)NC(=O)[C@H](CCCNC(=N)N)NC(=O)[C@H](C)NC(=O)[C@H](CCC(=O)O)NC(=O)[C@@H](NC(=O)[C@H](CCSC)NC(=O)[C@H](CCCCN)NC(=O)[C@H](CCCNC(=N)N)NC(=O)[C@H](CC(C)C)NC(=O)[C@H](CC(C)C)NC(=O)[C@H](CCC(=O)O)NC(=O)[C@H](CC(C)C)NC(=O)[C@H](CO)NC(=O)[C@H](CC(C)C)NC(=O)[C@H](CC(=O)O)NC(=O)[C@@H](NC(=O)[C@H](CO)NC(=O)[C@@H](NC(=O)[C@@H]1CCCN1C(=O)[C@@H]1CCCN1C(=O)CNC(=O)[C@@H]1CCC(=O)N1)[C@@H](C)CC)[C@@H](C)CC)[C@@H](C)CC)[C@@H](C)CC)C(N)=O,stimulates,very significant lowering of blood pressure,–
CCCC[C@H](NC(=O)[C@@H](NC(=O)[C@H](CC(C)C)NC(=O)[C@H](CC(=O)O)NC(=O)[C@H](CC(C)C)NC(=O)[C@H](CO)NC(=O)[C@@H](NC(=O)[C@@H]1CCCN1C(=O)[C@@H]1CCCN1C(=O)[C@H](CCC(=O)O)NC(=O)CNC(=O)c1ccccc1)[C@@H](C)CC)[C@@H](C)O)C(=O)N[C@@H](Cc1c[nH]cn1)C(=O)N[C@@H](CC(C)C)C(=O)N[C@@H](CC(C)C)C(=O)N[C@@H](CCCNC(=N)N)C(=O)N[C@@H](CCC(=O)O)C(=O)N[C@H](C(=O)N[C@@H](CC(C)C)C(=O)N[C@@H](CCC(=O)O)C(=O)N[C@@H](CCSC)C(=O)N[C@@H](C)C(=O)N[C@@H](CCCNC(=N)N)C(=O)N[C@@H](C)C(=O)N[C@@H](CCC(=O)O)C(=O)N[C@@H](CCC(N)=O)C(=O)N[C@@H](CC(C)C)C(=O)N[C@@H](C)C(=O)N[C@@H](CCC(=O)O)C(=O)N[C@@H](CCC(N)=O)C(=O)N[C@@H](C)C(=O)N[C@@H](Cc1c[nH]cn1)C(=O)N[C@@H](CO)C(=O)N[C@@H](CC(N)=O)C(=O)N[C@@H](CCCNC(=N)N)C(=O)N[C@@H](CCCNC(=N)N)C(=O)N[C@@H](CC(C)C)C(=O)N[C@@H](CCSC)C(=O)N[C@@H](CCC(=O)O)C(=O)N[C@H](C(=O)N[C@H](C(N)=O)[C@@H](C)CC)[C@@H](C)CC)C(C)C (Bz-GEPPISLDLT[Nle]HLLREVLEMARAEQLAEQAHSNRRLMEII-NH2),stimulates,very significant lowering of blood pressure,–
CC[C@H](C)[C@H](NC(=O)[C@@H]1CCCN1C(=O)[C@@H]1CCCN1)C(=O)N[C@@H](CO)C(=O)N[C@@H](CC(C)C)C(=O)N[C@@H](CC(=O)O)C(=O)N[C@@H](CC(C)C)C(=O)N[C@H](C(=O)N[C@@H](CC(C)C)C(=O)N[C@@H](Cc1c[nH]cn1)C(=O)N[C@@H](CC(C)C)C(=O)N[C@@H](CC(C)C)C(=O)N[C@@H](CCCNC(=N)N)C(=O)N[C@@H](CCC(=O)O)C(=O)N[C@@H](CCSC)C(=O)N[C@@H](CC(C)C)C(=O)N[C@@H](CCC(=O)O)C(=O)N[C@@H](CCSC)C(=O)N[C@@H](CCC(=O)O)C(=O)N[C@@H](CCCN)C(=O)N[C@@H](C)C(=O)N[C@@H](CCC(=O)O)C(=O)N[C@@H](CCC(N)=O)C(=O)N[C@@H](CCC(=O)O)C(=O)N[C@@H](C)C(=O)N[C@@H](CCC(=O)O)C(=O)N[C@@H](CCC(N)=O)C(=O)N[C@@H](C)C(=O)N[C@@H](C)C(=O)N[C@@H](CC(C)C)C(=O)N[C@@H](CC(N)=O)C(=O)N[C@@H](CCCNC(=N)N)C(=O)N[C@@H](CCCCNC(=N)N)C(=O)N[C@@H](CC(C)C)C(=O)N[C@@H](CC(C)C)C(=O)N[C@@H](CCC(=O)O)C(=O)N[C@@H](CCC(=O)O)C(=O)N[C@@H](C)C(N)=O)[C@@H](C)O (H-PPISLDLTLHLLREMLEME[Orn]AEQEAEQAALNR[hArg]LLEEA-NH2),stimulates,very significant lowering of blood pressure,–
"CCCC[C@H](NC(=O)[C@H](CCC(=O)O)NC(=O)[C@H](CC(C)C)NC(=O)[C@H](CCCC)NC(=O)[C@H](CCC(=O)O)NC(=O)[C@H](CCCNC(=N)N)NC(=O)[C@H](CC(C)C)NC(=O)[C@H](CC(C)C)NC(=O)[C@H](Cc1c[nH]cn1)NC(=O)[C@H](Cc1ccccc1)NC(=O)[C@@H](NC(=O)[C@H](CC(C)C)NC(=O)[C@H](CC(=O)O)NC(=O)[C@H](CC(C)C)NC(=O)[C@H](CO)NC(=O)[C@@H](NC(=O)[C@@H]1CCCN1C(=O)[C@H]1CCCN1)[C@@H](C)CC)[C@@H](C)O)C(=O)N[C@@H](C)C(=O)N[C@@H](CCCCN)C(=O)N[C@@H](C)C(=O)N[C@@H](CCC(=O)O)C(=O)N[C@@H](CCC(N)=O)C(=O)N[C@@H](CCC(=O)O)C(=O)N[C@@H](C)C(=O)N[C@@H](CCC(=O)O)C(=O)N[C@@H](CCC(N)=O)C(=O)N[C@@H](C)C(=O)N[C@@H](C)C(=O)N[C@@H](CC(C)C)C(=O)N[C@@H](CC(N)=O)C(=O)N[C@@H](CCCNC(=N)N)C(=O)N[C@@H](CC(C)C)C(=O)N[C@@H](CC(C)C)C(=O)N[C@@H](CC(C)C)C(=O)N[C@@H](CCC(=O)O)C(=O)N[C@@H](CCC(=O)O)C(=O)N[C@@H](C)C(N)=O [[D-Pro^4, Nle^18,21]-AHC(4-41)] (H-[dP]PISLDLTFHLLRE[Nle]LE[Nle]AKAEQEAEQAALNRLLLEEA-NH2)",–,very significant lowering of blood pressure,–
"CCCC[C@H](NC(=O)[C@H](CCC(=O)O)NC(=O)[C@H](CC(C)C)NC(=O)[C@@H](NC(=O)[C@H](CCC(=O)O)NC(=O)[C@H](CCCNC(=N)N)NC(=O)[C@H](CC(C)C)NC(=O)[C@H](CC(C)C)NC(=O)[C@H](Cc1c[nH]cn1)NC(=O)[C@H](Cc1ccccc1)NC(=O)[C@@H](NC(=O)[C@H](CC(C)C)NC(=O)[C@H](CC(=O)O)NC(=O)[C@H](CC(C)C)NC(=O)[C@H](CO)NC(=O)[C@@H](NC(=O)[C@@H]1CCCN1C(=O)[C@H]1CCCN1)[C@@H](C)CC)[C@@H](C)O)C(C)C)C(=O)N[C@@H](C)C(=O)N[C@@H](CCCNC(=N)N)C(=O)N[C@@H](C)C(=O)N[C@@H](CCC(=O)O)C(=O)N[C@@H](CCC(N)=O)C(=O)N[C@@H](CC(C)C)C(=O)N[C@@H](C)C(=O)N[C@@H](CCC(N)=O)C(=O)N[C@@H](CCC(N)=O)C(=O)N[C@@H](C)C(=O)N[C@@H](Cc1c[nH]cn1)C(=O)N[C@@H](CO)C(=O)N[C@@H](CC(N)=O)C(=O)N[C@@H](CCCNC(=N)N)C(=O)N[C@@H](CCCCN)C(=O)N[C@@H](CC(C)C)C(=O)N[C@@H](CCSC)C(=O)N[C@@H](CCC(=O)O)C(=O)N[C@H](C(=O)N[C@H](C(N)=O)[C@@H](C)CC)[C@@H](C)CC [[D-Pro^4, Nle^21,38]-rCRF(4-41)] (H-[dP]PISLDLTFHLLREVLE[Nle]ARAEQLAQQAHSNRKLMEII-NH2)",stimulates the secretion of ACTH and B-END-LI in an amount greater than oCRF,very significant lowering of blood pressure,–
"CCCC[C@H](NC(=O)[C@H](CCC(=O)O)NC(=O)[C@H](CC(C)C)NC(=O)[C@H](CCCC)NC(=O)[C@H](CCC(=O)O)NC(=O)[C@H](CCCNC(=N)N)NC(=O)[C@H](CC(C)C)NC(=O)[C@H](CC(C)C)NC(=O)[C@H](Cc1c[nH]cn1)NC(=O)[C@H](Cc1ccccc1)NC(=O)[C@@H](NC(=O)[C@H](CC(C)C)NC(=O)[C@H](CC(=O)O)NC(=O)[C@H](CC(C)C)NC(=O)[C@H](CO)NC(=O)[C@@H](NC(=O)[C@@H]1CCCN1C(=O)[C@H]1CCCN1C(=O)[C@H](N)Cc1ccc(O)cc1)[C@@H](C)CC)[C@@H](C)O)C(=O)N[C@@H](C)C(=O)N[C@@H](CCCCN)C(=O)N[C@@H](C)C(=O)N[C@@H](CCC(=O)O)C(=O)N[C@@H](CCC(N)=O)C(=O)N[C@@H](CCC(=O)O)C(=O)N[C@@H](C)C(=O)N[C@@H](CCC(=O)O)C(=O)N[C@@H](CCC(N)=O)C(=O)N[C@@H](C)C(=O)N[C@@H](C)C(=O)N[C@@H](CC(C)C)C(=O)N[C@@H](CC(N)=O)C(=O)N[C@@H](CCCNC(=N)N)C(=O)N[C@@H](CC(C)C)C(=O)N[C@@H](CC(C)C)C(=O)N[C@@H](CC(C)C)C(=O)N[C@@H](CCC(=O)O)C(=O)N[C@@H](CCC(=O)O)C(=O)N[C@@H](C)C(N)=O [[D-Tyr^3, D-Pro^4, Nle^18,21]-AHC(3-41)] (H-[dY][dP]PISLDLTFHLLRE[Nle]LE[Nle]AKAEQEAEQAALNRLLLEEA-NH2)",–,very significant lowering of blood pressure,–
H-SQEPPISLDLTFHLLREMLEMAKAEQEAEQAALNRLLLEEA-NH2 [AHC],–,–,at a plateau level
"H-SQEPPISLDLTFHLLREVLEMTRADQLAQQAHSNRRLLDIA-NH2 [[Arg^23,36]-oCRF]",–,very significant lowering of blood pressure,–

# — patent publication EP0153845A2, “CRF analogs” (THE SALK INSTITUTE FOR BIOLOGICAL STUDIES, priority 1984, dated 1985)
